Assay results as given in patent US20180169100A1, “Cancer Stem Cell Targeting Compounds” (Godavari Biorefineries Limited, priority 2014, published 2018).

Tests used:
Format in all cases: cell-based
[1] = tested on: Bu25tk; experiment: In vitro colorimetric cell death assay (MTT); details: Bu25tk cervical cancer cell line, 48 hours with compound, read-out: IC 50 Value
Method: (§1) For assessing cell viability in vitro colorimetric cell death assay was carried out where the cells were grown in two-dimensional surface as follows. Cancer cells with plating efficiency as mentioned herein below for respective cell lines were plated in a 96 well plate. The plate was incubated for 24 hours in a 5% CO2 atmosphere at 37 degrees Celsius, a range of concentrations from 10^−3 M to 10^−6 M of the compound Ethyl-5,6-dimethyl-4-(piperidin-1-yl)thieno[2,3-d]pyrimidine was added to the wells, the plates were incubated further for 48 hours in a 5% CO2 atmosphere, the plate was centrifuged twice at 3000 rpm for 3 minutes, the supernatant fluid was discarded, 100 uL of 0.5 mg/mL 3-(4,5-Dimethylthiazol-2-yl)-2,5-Diphenyltetrazolium Bromide (MTT) solution was added and the plate was incubated for 4 hours in a 5% CO2 atmosphere at 37 degrees Celsius. The plate was then centrifuged twice at 3000 rpm for 3 minutes, supernatant was aspirated very carefully, 200 uL Dimethyl sulfoxide (DMSO) was added to each well to solubilize MTT crystals and mixed well by shaking the plate, the plate was incubated for 10 minutes in a 5% CO2 atmosphere at 37 degrees Celsius, the plate was placed on the shaker of an ELISA plate reader and the absorbance at 570 nm was measured, the percentage of viable cells remaining was calculated by first subtracting the background absorbance then comparing to the absorbance of a non-drug-treated cell sample, and the results were plotted on a graph to determine the IC50 for the compound Ethyl-5,6-dimethyl-4-(piperidin-1-yl)thieno[2,3-d]pyrimidine which was calculated by regression analysis.

[2] = tested on: Colo320; experiment: In vitro colorimetric cell death assay (MTT); details: Colo320 colon cancer cell line, 48 hours with compound, read-out: IC 50 Value
Method: as §1

[3] = tested on: DU145; experiment: In vitro colorimetric cell death assay (MTT); details: DU145 prostate cancer cell line, 48 hours with compound, read-out: IC 50 Value
Method: as §1

[4] = tested on: HeLa; experiment: In vitro colorimetric cell death assay (MTT); details: HeLa cervical cancer cell line, 48 hours with compound, read-out: IC 50 Value
Method: as §1

[5] = tested on: Hep3B; experiment: In vitro colorimetric cell death assay (MTT); details: Hep3B hepatic cancer cell line, 48 hours with compound, read-out: IC 50 Value
Method: as §1

[6] = tested on: L929; experiment: In vitro colorimetric cell death assay (MTT); details: L929 fibroblast cancer cell line, 48 hours with compound, read-out: IC 50 Value
Method: as §1

[7] = tested on: LNCaP; experiment: In vitro colorimetric cell death assay (MTT); details: LNCaP prostate cancer cell line, 48 hours with compound, read-out: IC 50 Value
Method: as §1

[8] = tested on: MCF-7; experiment: In vitro colorimetric cell death assay (MTT); details: MCF-7 breast cancer cell line, 48 hours with compound, read-out: IC 50 Value
Method: as §1

[9] = tested on: MDAMB231; experiment: In vitro colorimetric cell death assay (MTT); details: MDAMB231 breast cancer cell line, 48 hours with compound, read-out: IC 50 Value
Method: as §1

[10] = tested on: PC3; experiment: In vitro colorimetric cell death assay (MTT); details: PC3 prostate cancer cell line, 48 hours with compound, read-out: IC 50 Value
Method: as §1

[11] = tested on: SiHa; experiment: In vitro colorimetric cell death assay (MTT); details: SiHa cervical cancer cell line, 48 hours with compound, read-out: IC 50 Value
Method: as §1

[12] = tested on: T47D; experiment: In vitro colorimetric cell death assay (MTT); details: T47D breast cancer cell line, 48 hours with compound, read-out: IC 50 Value
Method: as §1

[13] = tested on: primary spheres of DU145; experiment: 3D Primary Sphere Assay; details: GC 49(±5), GCD 41(±4)
Method: (§2) The ability of cancer stem cells to form spheres in a serum free media was determined by 3D Primary Sphere Assay, where the spheres were in a suspended form. Through this assay the potency of the compound Ethyl-5,6-dimethyl-4-(piperidin-1-yl)thieno[2,3-d]pyrimidine to kill cancer stem cells in comparison to the standard chemotherapeutic drug such as Cisplatin was evaluated as follows. The Cells were grown in three dimensions on a plastic substrate, harvested in suspension in serum-free media, then the cells in the sample were trypsinised and a single cell suspension was formed by passing through a cell strainer. The cells were diluted according to the predetermined plating efficiency for the cell line being studied by suspending the cells in stem cell culture medium. 100 uL of this suspension was added into each well of a 96 well suspension plate, and the plate was incubated at 37 degrees Celsius in 5% CO2 atmosphere for 24 hours, then 2 uL of appropriate concentrations of the drugs were added into each respective well along with 100 uL of stem cell culture medium, and the plates incubated at 37 degrees Celsius under 5% CO2 atmosphere for 72 hours. 2.5 uL of the appropriate drug concentration was added to each respective well along with 50 uL of stem cell culture medium and the plates were incubated at 37 degrees Celsius under 5% CO2 atmosphere for 72 hours. 3 uL of the appropriate concentration of the compound as mentioned below was added to each respective well along with 50 uL of stem cell culture medium, incubated at 37 degrees Celsius under 5% CO2 atmosphere for 72 hours, the spheres formed were observed under a microscope, counted and scored by size. Results of the in vitro 3D sphere forming stem cell assay were set forth in a tabular manner. […] GC refers to a growth control performed in the absence of drug or solvent (DMSO). GCD refers to a growth control performed in the absence of drug, but in the presence of DMSO.

[14] = tested on: primary spheres of MDA MB231; experiment: 3D Primary Sphere Assay; details: GC 92(±7), GCD 83(±6)
Method: as §2

[15] = tested on: primary spheres of PC3; experiment: 3D Primary Sphere Assay; details: GC 120(±10), GCD 103(±9)
Method: as §2

[16] = tested on: CD44 population of PC3 cells; experiment: Flow cytometry study, CD44/CD24 staining; details: PC3 cells exposed to IC25 drug conc. for 48 hrs; untreated 85.61% cells CD44
Method: For Flow cytometry assay the PC3 cancer cells (0.35×106) were cultured in Dulbecco's Modified Eagle's medium (DMEM) with 10% Fetal Bovine Serum (F.B.S) in 60 mm tissue culture plates for 24 hrs in 5% CO2 at 37° C. Cells were then exposed to IC25 drug conc. of Cisplatin in duplicates. Similarly other sets of cells were treated with IC25 drug conc. of Ethyl-5,6-dimethyl-4-(piperidin-1-yl)thieno[2,3-d]pyrimidine for 48 hrs. and incubated in 5% CO2 at 37° C. for 48 hrs. Appropriate controls that is growth control (cells+DMEM medium) and solvent control (cells+control DMEM medium+DMSO) and medium control (DMEM) were also kept along with the experimental sets. After 48 hrs the cells were observed under the microscope, trypsinised, washed with Dulbecco's phosphate-buffered saline (D.P.B.S.) 50 μl of cells were taken for each set and 5 μl of each of the CD44-PE labeled and CD24-FITC labeled antibodies were added. The sets were incubated for 45 mins at 4° C. for proper binding of antibodies. After incubation the cells were washed with 200 μl of D.P.B.S by centrifugation. The supernatant was discarded and the cells were finally suspended in 300 μl of FACS buffer (4% Fetal Bovine Serum in D.P.B.S). Samples were kept at 4° C. in dark till they were acquired on FACS. Acquisition was done on BD-FACS Accuri C6.

[17] = tested on: CD44 population of DU145 cells; experiment: Flow cytometry study, CD44/CD24 staining; details: DU145 cells exposed to IC25 drug conc. for 48 hrs; untreated 70.18% cells CD44

N.N.[Cl][Pt][Cl] [Cisplatin]
IC50 [1]: 59.3 µM
IC50 [2]: 38.3 µM
IC50 [3]: 31.6 µM
IC50 [4]: 33.9 µM
IC50 [5]: 37.6 µM
IC50 [6]: 29 µM
IC50 [7]: 52.5 µM
IC50 [8]: 29.2 µM
IC50 [9]: 48.4 µM
IC50 [10]: 11.2 µM
IC50 [11]: 35.5 µM
IC50 [12]: 58.9 µM
total number of spheres formed ([13]; DU145, final conc. 1.25 μM): 48(±5)
total number of spheres formed ([13]; DU145, final conc. 12.5 μM): 41(±5)
total number of spheres formed ([13]; DU145, final conc. 125 μM): 23(±4)
total number of spheres formed ([13]; DU145, final conc. 1250 μM): 12(±3)
total number of spheres formed ([14]; MDA MB231, final conc. 1.25 μM): 76(±8)
total number of spheres formed ([14]; MDA MB231, final conc. 12.5 μM): 52(±6)
total number of spheres formed ([14]; MDA MB231, final conc. 125 μM): 39(±3)
total number of spheres formed ([14]; MDA MB231): 25(±5)
total number of spheres formed ([15]; PC3, final conc. 1.25 μM): 109(±6)
total number of spheres formed ([15]; PC3, final conc. 12.5 μM): 107(±9)
total number of spheres formed ([15]; PC3, final conc. 125 μM): 88(±6)
total number of spheres formed ([15]; PC3): 74(±7)
effect on CD44 population [16]: did not have much effect
effect on CD44 population [17]: did not have much effect
